These results are taken from patent US20230099441A1, “HETEROCYCLIC COMPOUND, APPLICATION THEREOF, AND COMPOSITION CONTAINING SAME” (GenEros Biopharma Ltd., priority 2019, published 2023).

For the assay, the system named is STAT5 Y694 phosphorylation. Briefly: Protein electrophoresis and blotting of STAT5 Y694 phosphorylation in Jurkat cells stimulated with human interferon beta. Type of assay: cell-based. The following applies: for Example of Effect 1: Inhibiting Ability (Protein Electrophoresis and Blotting): observed pSTAT5 bands at 10 μM and 100 μM; for Inhibiting Ratio (0% for vehicle control): 1 hour pretreatment, 20 ng/ml human interferon beta 30 minutes, pSTAT5/GAPDH. As to the method: Example of Effect 1: Protein Electrophoresis and Blotting Experiment
Standard protein electrophoresis and chemiluminescence imaging equipment (Bio-Rad);
Protein lysate RIPA (Lianke Biological; Cat #WB020); Western blot transfer membrane PVDF (Millipore; Cat #IPVH00010);
Jurkat cells (ATCC American Standard Culture Center, TIB152) were cultured in a 6-well plate at a density of 1×10^6/ml with RPMI medium […] 10% fetal bovine serum in a humidified incubator at 37° C. and maintained at 5% carbon dioxide overnight. On the second day, the cells were pretreated with compounds of different concentrations (the mother liquor of the compound prepared by dimethyl sulfoxide was diluted in the medium at the required concentration) for 1 hour, and then stimulated with 20 ng/ml human interferon beta for 30 minutes, it was mixed thoroughly and then placed in an incubator at 37° C. environment. […] Then an appropriate volume of RIPA Lysis Solution was added, it was mixed well, and placed on ice for 1 hour, inverted and mixed several times in the middle. Then, the cell lysate was centrifuged at 12000 rpm at 4° C. for 10 minutes, and the supernatant was transferred to another test tube, aliquoted and stored at −20° C. until use.
An equal volume of protein lysate was mixed with an appropriate 6-fold protein loading buffer (Biyun Tian Biochemical Company P0015F), and the mixture was heated at 95 degrees for 10 minutes, after full denaturation, the protein sample was added to the polyacrylamide gel (self-made, raw material purchased from Soleibao Biotechnology Company A1010, 30% acrylamide solution), and electrophoresis was performed at the appropriate voltage for 1 hour, until the strips were fully separated. It was transferred to a polyvinylidene fluoride membrane according to standard procedures, and blocked with 5% skim milk for 1 hour, and the specified antibody was added, and it was diluted 1:1000 in 3% bovine serum albumin, and it was incubated overnight for four degrees. It was thoroughly rinsed, incubated with the secondary antibody, exposed to chemiluminescence and signals were collected. ImageJ software was used to quantify the obtained chemiluminescence results. The same area was selected, the gray values of STAT5 phosphorylation band and GAPDH band of each sample were analyzed, and the ratio of pSTAT5/GAPDH level was calculated. The value of the solvent-treated sample was 100%, and the remaining samples were converted into relative data in the same proportion, that is, the percentage corresponding to the solvent sample. […] The solvent control group was the same as the test compound group except that DMSO was used instead of the DMSO solution of the test compound. N1 (Pimozide) was a specific positive control.

As for `O=C1Nc2ccccc2C1C1CCN(C(=O)Cc2ccc(C(F)(F)F)cc2)CC1` (stereo not shown) [GEN1-051, 3-(1-(2-(4-(trifluoromethyl)phenyl)acetyl)piperidin-4-yl)indol-2-one], the “Example of Effect 1: Inhibiting Ability (Protein Electrophoresis and Blotting)” value (“Example of Effect 1: Inhibiting Ability” below) was “+”.

As to `O=C(Cc1ccc(C(F)(F)F)cc1)N[C@H]1CC[C@@H](n2c(=O)[nH]c3ccccc32)CC1` [GEN1-021, Cis-N-(4-(2-oxo-2,3-dihydro-1H-benzo[d]imidazol-1-yl)cyclohexyl)-2-(4-(trifluoromethyl)phenyl)acetamide], the “Example of Effect 1: Inhibiting Ability” value is on record as “+”. Moreover, the “Inhibiting Ratio (0% for vehicle control)” value (1 μM) was −39.8%. The “Inhibiting Ratio (0% for vehicle control)” value (10 μM) is −26.3%. The “Inhibiting Ratio (0% for vehicle control)” value (100 μM) was found to be 97.6%. In the case of `CC(C)(C)c1ccc(CC(=O)N2CCC(n3c(=O)[nH]c4cccc(C(F)(F)F)c43)CC2)cc1` [GEN1-115, 1-(1-(2-(4-(tert-butyl)phenyl)acetyl)piperidin-4-yl)-7-(trifluoromethyl)-1^1H-benzo[d]imidazol-2(3H)-one], the “Example of Effect 1: Inhibiting Ability” value is “+”. Same read-out and setting: in the case of `O=C(CC12CC3CC(CC(C3)C1)C2)N1CCC(n2c(=O)[nH]c3ccccc32)CC1` [GEN1-098, 1-(1-(2-(adamantan-1-yl)acetyl)piperidin-4-yl)-1H-benzo[d]imidazol-2(3H)-one] it was “+”. Consider `O=C(Cc1ccc(C(F)(F)F)cc1)N1CCC(n2c(=O)[nH]c3cccnc32)CC1` [GEN1-044, 3-(1-(2-(4-(trifluoromethyl)phenyl)acetyl)piperidin-4-yl)-1H-imidazo[4,5-b]pyridin-2(3H)-one], for which the “Example of Effect 1: Inhibiting Ability” value is reported as “+”. Still for that read-out and setting: in the case of `O=C(Cc1ccc(C(F)(F)F)cc1)NCc1cnc2c(c1)CC(=O)N2` [GEN1-083, N-((2-oxo-2,3-dihydro-1H-pyrrolo[2,3-b]pyridin-5-yl)methyl)-2-(4-(trifluoromethyl)phenyl)acetamide] it was “−”; in that of `O=C(Cc1ccc(C(F)(F)F)cc1)NCc1ccc2c(c1)C(=O)NC2` [GEN1-084, N-((3-oxoisoindol-5-yl)methyl)-2-(4-(trifluoromethyl)phenyl)acetamide], “+”.

`NS(=O)(=O)c1cccc2[nH]c(=O)n(C3CCN(C(=O)Cc4ccc(C(F)(F)F)cc4)CC3)c12` [GEN1-094, 2-oxo-3-(1-(2-(4-(trifluoromethyl)phenyl)acetyl)piperidin-4-yl)-2,3-dihydro-1H-benzo[d]imidazol-4-sulfonamide]: the “Example of Effect 1: Inhibiting Ability” value was “+”. `O=c1c2ccc(-n3c(=O)[nH]c4ccccc43)cc2ccn1-c1ccc(C(F)(F)F)cc1` [GEN1-086, 6-(2-oxo-2,3-dihydro-1H-benzo[d]imidazol-1-yl)-2-(4-(trifluoromethyl)phenyl)isoquinoline-1(2H)-one]: the “Example of Effect 1: Inhibiting Ability” value was “−”.

For the molecule `O=C(Cc1ccc(C(F)(F)F)cc1)N1CCC(n2c(=O)[nH]c3ccncc32)CC1` [GEN1-043, 3-(1-(2-(4-(trifluoromethyl)phenyl)acetyl)piperidin-4-yl)-1H-imidazo[4,5-c]pyridin-2(3H)-one], the “Example of Effect 1: Inhibiting Ability” value is “−”.

Consider `O=C(Cc1ccc(C(F)(F)F)cc1)N1CCC(n2c(=O)[nH]c3ccc(O)cc32)CC1` [GEN1-012, 6-hydroxy-1-(1-(2-(4-(trifluoromethyl)phenyl)acetyl)piperidin-4-yl)-1H-benzo[d]imidazole-2 (3H)-one], for which the “Example of Effect 1: Inhibiting Ability” value was “+”. In the case of `CC(C)(C)c1ccc2[nH]c(=O)n(C3CCN(C(=O)Cc4ccc(C(F)(F)F)cc4)CC3)c2c1` [GEN1-088, 6-(tert-butyl)-1-(1-(2-(4-(trifluoromethyl)phenyl)acetyl)piperidin-4-yl)-1H-benzo[d]imidazol-2(3H)-one], the “Example of Effect 1: Inhibiting Ability” value was “+”. Consider `O=C(Cc1ccc(N2CCOCC2)cc1)N1CCC(n2c(=O)[nH]c3ccccc32)CC1` [GEN1-034, 1-(1-(2-(4-morpholinophenyl)acetyl)piperidin-4-yl)-1H-benzo[d]imidazole-2(3H)-one], for which the “Example of Effect 1: Inhibiting Ability” value is given as “−”. With `O=C1CCN(C2CCN(C(=O)Cc3ccc(C(F)(F)F)cc3)CC2)c2ccccc2N1` [GEN1-102, 5-(1-(2-(4-(trifluoromethyl)phenyl)acetyl)piperidin-4-yl)-4,5-dihydro-1H-benzo[b][1,4]diazepine-2(3H)-one], the “Example of Effect 1: Inhibiting Ability” value is “+”. On the same count and under the same terms, in the case of `O=C(Cc1ccc2ccccc2c1)N1CCC(n2c(=O)[nH]c3ccccc32)CC1` [GEN1-073, 1-(1-(2-(naphth-2-yl)acetyl)piperidin-4-yl)-1H-benzo[d]imidazol-2(3H)-one] it was “+”. On to `O=C(Cc1ccc(C(F)(F)F)cc1)N1CCC(n2c(=O)[nH]c3cnccc32)CC1` [GEN1-042, 1-(1-(2-(4-(trifluoromethyl)phenyl)acetyl)piperidin-4-yl)-1H-imidazo[4,5-c]pyridin-2(3H)-one], for which the “Example of Effect 1: Inhibiting Ability” value was “+”. Turning to `O=C(Cc1ccc(C(F)(F)F)cc1)N1CCC(n2c(=O)n(O)c3ccccc32)CC1` [GEN1-059, 1-hydroxy-3-(1-(2-(4-(trifluoromethyl)phenyl)acetyl)piperidin-4-yl)-1H-benzo[d]imidazol-2(3H)-one], the “Example of Effect 1: Inhibiting Ability” value is recorded as “−”. In the case of `O=c1[nH]c2ccccc2n1C1CCN(CCCC(c2ccc(F)cc2)c2ccc(F)cc2)CC1` [Example N1, Pimozide, reference compound], the “Example of Effect 1: Inhibiting Ability” value is “+”. Further, the “Inhibiting Ratio (0% for vehicle control)” value (1 μM) is given as −0.6%. Moreover, under “10 μM”, the “Inhibiting Ratio (0% for vehicle control)” value turned out to be 5.9%. For the same molecule, the “Inhibiting Ratio (0% for vehicle control)” value (100 μM) is 95.4%. For the molecule `O=C(N1CCC(n2c(=O)[nH]c3cccc(C(F)(F)F)c32)CC1)C1(c2ccc(C(F)(F)F)cc2)CC1` [GEN1-146, 7-(trifluoromethyl)-1-(1-(1-(4-(trifluoromethyl)phenyl)cyclopropane-1-carbonyl)piperidin-4-yl)-1,3-dihydro-2H-benzo[d]imidazol-2-one], the “Example of Effect 1: Inhibiting Ability” value is “+”. As to `NC(=O)N(c1ccccn1)C1CCN(C(=O)Cc2ccc(C(F)(F)F)cc2)CC1` [GEN1-164, 1-(pyridin-2-yl)-1-(1-(2-(4-(trifluoromethyl)phenyl)acetyl)piperidin-4-yl)urea], the “Example of Effect 1: Inhibiting Ability” value is “−”. Take `O=C(Cc1ccc(C(F)(F)F)cc1)N1CCC(N2C/C(=N\O)Nc3ccccc32)CC1` [GEN1-150, (E)-1-(4-(3-(hydroxyimino)-3,4-dihydroquinoxaline-1(2H)-yl)piperidin-1-yl)-2-(4-(trifluoromethyl)phenyl)ethane-1-one]: the “Example of Effect 1: Inhibiting Ability” value was “−”. Consider `COc1cccc2[nH]c(=O)n(C3CCN(C(=O)Cc4ccc(C(F)(F)F)cc4)CC3)c12` [GEN1-015, 7-methoxy-1-(1-(2-(4-(trifluoromethyl)phenyl)acetyl)piperidin-4-yl)-1H-benzo[d]imidazole-2(3H)-one], for which the “Example of Effect 1: Inhibiting Ability” value is listed as “+”. Further, under “1 μM”, the “Inhibiting Ratio (0% for vehicle control)” value was determined as 9.7%. Also, for the setting “10 μM”, the “Inhibiting Ratio (0% for vehicle control)” value is recorded as 43.4%. For the same molecule, the “Inhibiting Ratio (0% for vehicle control)” value (100 μM) is listed as 95.7%. Take `O=C(Cc1ccc(C(F)(F)F)cc1)NCC1Cc2cccc3[nH]c(=O)n(c23)C1` (stereo not shown) [GEN1-065]: the “Example of Effect 1: Inhibiting Ability” value was “−”. Consider `O=C1CN(C2CCN(C(=O)Cc3ccc4ncccc4c3)CC2)c2ccccc2N1` [GEN1-120, 4-(1-(2-(quinolin-6-yl)acetyl)piperidin-4-yl)-3,4-dihydroquinoxaline-2(1H)-one], for which the “Example of Effect 1: Inhibiting Ability” value is “−”. `O=C(c1ccc(C(F)(F)F)cc1)N1CCC(n2c(=O)[nH]c3ccccc32)CC1` [GEN1-017, 1-(1-(4-(trifluoromethyl)benzoyl)piperidin-4-yl)-1H-benzo[d]imidazole-2(3H)-one]: the “Example of Effect 1: Inhibiting Ability” value is reported as “−”.
